Experimental data from patent publication US20230096528A1, “Pharmaceutical Composition for Treatment or Prevention of Multiple Inflammatory disorders” (priority 2019, published 2023).

Tested on: diet-induced (DIO) mice
Test: Body weight study in diet-induced (DIO) mice (Example 9)
Format: in vivo, C57BL/6NTac mice
Details: gavage BID (DA 92.4 mg/kg, CQL 50 mg/kg)
Method: This example provides results of a study of DA plus another compound (CQL) on body weight in diet-induced (DIO) mice. Adult C57BL/6NTac mice were fed with a high fat diet (60%). […] The study period was for 56 days+2-3 days testing period afterward. Body weight change measure 3× per week, food and water consumption on days 0, 12, 28, 42 and 56. Metabolic biomarkers were measured on days 28 and 56. Cytokine analysis on Days 28 and 56. Serum levels of GLP-1, GLP-2, and CCK at 1 h after dosing on Days 1 and 56, and at 2 h after dosing on Day 7 (dosing (>6 h fasting prior to dosing until after blood collection); and serum level of PPY on Day 56.

Question: Which “Serum HbA1c level at Day 28” value does the source give for `Oc1c(I)cc(Cl)c2cccnc12` [CQL] here?
Answer: significantly reduced

Question: What about the “Serum HbA1c level at Day 56” value of the same molecule?
Answer: considerably increased

Question: And the “Daily water intake at Day 28” value (vs vehicle)?
Answer: significantly decreased
